The values below come from article PMC4838890, “Dynamic and flexible H3K9me3 bridging via HP1β dimerization establishes a plastic state of condensed chromatin” (Nature Communications, 2016).

In assay [1] the test system is H3KC9me3 oligonucleosomes. The assay is described as follows: Chromatin coprecipitation, H3KC9me3 oligonucleosomes. The class given is binding, Xenopus laevis. On the procedure: 6.7 nM oligonucleosomes were incubated with 1 μM recombinant protein in 100 μl binding buffer (10 mM triethanolamine (pH 7.5), 150 mM NaCl, 5 mM MgCl2, 0.1 mM EDTA, 0.1% (v/v) Triton-X100) for 1 h on ice. Precipitated chromatin complexes were recovered by centrifugation at 16,100g for 30 min at 4°C. Pellets were washed once with 0.5 ml binding buffer and centrifuged for 15 min at 4 °C. Precipitated material was resuspended in 10 μl 1 × SDS loading buffer and boiled for 5 min before running on SDS–PAGE.
Supplementary Table 1: Summary of conditions used in the different experiments of this study.
experiment result modification template Temp. [NaCl] [MgCl2]
chromatin Fig. 1e,f; Fig. S1f-h; H3K9me3 oligo- 4 150 5

Assay [2] concerns the target self-dimerization. The conditions noted are these: ref [9][20]; read-out: dimerization Kd in solution; cited from earlier work. On the procedure:
To test this hypothesis, we analysed an hHP1β chimera where the CSD was replaced with an unrelated dimerization module. We used glutathione S-transferase (GST), as it is known to form dimers of similar strength as hHP1β WT in solution (Kd<1 nM)[9][20].

Assay [3] relates to DNA fragment of 150 bp. The assay is described as follows: Electrophoretic mobility shift assay (EMSA). The class given is binding. Particulars: 150 bp DNA, 0, 3, 9 μM protein, 100 mM NaCl, 5 mM MgCl2, RT. How it is done: 50 ng 150 bp DNA amplified from the backbone of pUC18 was incubated with 0, 3, 9 μM recombinant protein in 10 μl EMSA buffer (10 mM Tris-HCl (pH 8.0), 100 mM NaCl, 5 mM MgCl2) for 20 min at room temperature (RT). 2 μl 50% (v/v) glycerol was added and samples were loaded onto 6% native PAGE gels. After electrophoresis, DNA was visualized by staining with 1 × SYBR Gold/0.25 × TBE for 20 min at RT. Images were captured using a ChemiDoc MP Imaging System (Bio-Rad, München, Germany). […]
crosslinking Fig. S6e,f nucleosomes […]
crosslinking Fig. S7a,b nucleosomes
EMSA Fig. 1g; Fig. 5c; n//a RT 100 5
1Preincubation of oligonucleosomes and h HP1β was performed at 4 °C . Measurements wer e carried out at the in dicated te mperature.
2in increments o f 0 .5 mM
3MgCl2 was added at the end of incubation to coprecipitate oligonucleosomes a nd bound hHP1β.
On the technique in general: In EMSA bound probe runs differently from free probe, usually more slowly.

Assay [4] has as its system H3K9me0 oligonucleosomes. The assay is described as follows: Fluorescence correlation spectroscopy (FCS), H3K9me0 oligonucleosomes. The class given is biochemical, Xenopus laevis. The conditions noted are these: 150 mM NaCl. On the procedure: All fluorescence measurements were performed with a pulsed custom-built mode-locked Ti:Sa-Laser and a confocal two-photon fluorescence microscope setup. Detailed description of the experimental setup and the measurement procedure are available on request. In all cases 10 nM of the acceptor labelled species, ATTO 610-labelled nucleosomal array, was incubated with 20–200 μM of recombinant hHP1β in 10 μl of 10 mM triethanolamine HCl (pH 7.5), 0.1 mM EDTA, 150 mM NaCl at 4°C. For each sample the fluorescence correlation curve, fluorescence intensity and anisotropy values were determined at 22°C. Every data point was averaged over a minimum of 15 single measurements of 10 s each. […]
The fluorescence data were analysed using the correlation function [drawing 1] , and the equation for free diffusion of particles [drawing 2] , where I(t) is the fluorescence intensity measured at time t, N the particle number, τD the diffusion time, and r0=0.25 the axis ratio of the focal region, considering the dimensions of a Gaussian beam waist. […]
(b) Results of stepwise precipitation and resolubilization after clustering H3K9me3-oligonucleosomes by hHP1β at different concentrations. DNA remaining in the supernatant after centrifugation was incubated with EtBr and measured by fluorescence reading. […]
(c) Instrumental setup used for two -photon fluorescence correlation spectroscopy (FCS). […]

Assay [5] deals with T1, H3K9me3 peptide (Homo sapiens, UniProt P68431).
T1 construct: C-terminally biotinylated histone H3 peptides (aa 1–20)
Kind of assay: Pull-down, immobilized H3K9me3 peptide. Format: binding. Particulars: H3-tail peptides densely immobilized on magnetic beads, 100 pmol protein, 150 mM NaCl, 4°C. On the procedure:
4 μg C-terminally biotinylated histone H3 peptides (aa 1–20) or 1 μg of biotinylated nucleosomes or oligonucleosomal arrays were incubated with 40 μl Streptavidin MagnaSphere Paramagmetic beads (Promega, Mannheim, Germany) in 350 μl binding buffer (10 mM triethanolamine (pH 7.5), 150 mM NaCl, 0.1 mM EDTA, 0.1% (v/v) Triton-X100) supplemented with 1 mg ml^−1 BSA for 2.5 h at RT. Unbound material was removed by three washes with 0.5 ml binding buffer. Charged beads were then incubated with 100 pmol recombinant protein in 350 μl binding buffer for 1 h at 4°C on a rotator. Beads were washed three times with 0.5 ml binding buffer for 3 min per wash at 4°C. Bound proteins were eluted in 20 μl 1 × SDS loading buffer and by boiling for 5 min.
Supplementary Table 1: Summary of conditions used in the different experiments of this study. experiment result modification template Temp. [NaCl] [MgCl2] […]
chromatin Fig. 1e,f; Fig. S1f-h; H3K9me3 oligo- 4 150 5 coprecipitation Fig. S2b nucleosomes
Fig. S7d,f; Fig.S9c nucleosomes […]
chromatin sedimentation Fig. 4a; H3K9me3 oligo- 4 150 0
(single point) Fig. S3b nucleosomes […]
chromatin sedimentation. oligo-(titration) Fig. 3a H3K9me3 nucleosomes 4 150 0

As usually defined, the Kd is a measure of binding affinity in units of concentration. In the case of “hHP1β WT: recombinant human heterochromatin protein 1β (GenBank NM_001127228), 185 aa”, the “recovery with H3KC9me3 oligonucleosomes” value in assay [1] (6.7 nM oligonucleosomes, 1 μM protein, 150 mM NaCl, 5 mM MgCl2) is listed as “bound specifically to H3K9me3 oligonucleosomes irrespective of the saturation level of the chromatin template”. For the same substance, in assay [1] (saturating protein concentrations), the “molecules bound per nucleosome” value is given as “two”. Moreover, the Kd in assay [2] is less than 1 nM. In assay [3], the DNA binding entry is reported as “hHP1α but not hHP1β showed a high level of general DNA binding”. Besides, the “assemblies with H3K9me0 oligonucleosomes (FCS)” value in assay [4] is “larger assemblies only appeared at high hHP1β WT concentrations”.
Take “hHP1β I161A: CSD point mutant of hHP1β incapable of dimerization”: in assay [5], the “recovery on H3K9me3 peptide” value is listed as “significantly reduced recovery”.
